Assay results published in publication PMC10347124, “Exploring the Anticancer Potential of Premna resinosa (Hochst.) Leaf Surface Extract: Discovering New Diterpenes as Heat Shock Protein 70 (Hsp70) Binding Agents” (Plants, 2023).

Legend:
[1] = target: T1, Hsp70 (Heat Shock Protein 70 1A) (Homo sapiens, UniProt P0DMV8); experiment: SPR (Biacore […]), single-site model; assay type: binding
T1 construct: gene HSPA1A; recombinant Hsp70 immobilized on CM5 chip

[2] = target: T1, Hsp70 (Heat Shock Protein 70 1A); experiment: SPR (Biacore […]), single-site model; positive control; assay type: binding

T1 sequence (P0DMV8 2-641): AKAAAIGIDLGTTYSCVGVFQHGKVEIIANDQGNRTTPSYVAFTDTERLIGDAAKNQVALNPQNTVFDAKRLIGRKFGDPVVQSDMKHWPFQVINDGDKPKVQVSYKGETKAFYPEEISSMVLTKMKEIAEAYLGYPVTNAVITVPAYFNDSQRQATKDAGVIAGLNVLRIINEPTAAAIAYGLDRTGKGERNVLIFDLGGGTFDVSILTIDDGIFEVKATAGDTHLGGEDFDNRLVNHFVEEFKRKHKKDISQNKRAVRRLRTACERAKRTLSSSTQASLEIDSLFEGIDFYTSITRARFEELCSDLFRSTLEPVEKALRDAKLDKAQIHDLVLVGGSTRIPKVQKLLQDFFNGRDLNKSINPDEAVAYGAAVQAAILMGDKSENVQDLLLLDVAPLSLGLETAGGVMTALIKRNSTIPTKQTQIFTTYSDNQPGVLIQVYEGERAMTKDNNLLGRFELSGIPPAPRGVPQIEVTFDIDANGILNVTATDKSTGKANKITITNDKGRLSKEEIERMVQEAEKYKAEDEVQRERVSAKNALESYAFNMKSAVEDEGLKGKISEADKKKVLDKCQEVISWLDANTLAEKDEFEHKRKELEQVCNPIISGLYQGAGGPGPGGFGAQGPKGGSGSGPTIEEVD

Row | Kd [1] [nM] | Kd [2] [nM] | SMILES
1 | 1000 |  | CC1=CCC2C(C)(C)CCCC2(C)C1CC(O)C1=CC(=O)OC1 (single isomer, unassigned; ent-12) [compound 4, ent-12-hydroxylabda-7,13-dien-15,16-olide]
2 |  | 81.4 | C=C1C(=O)[C@]23[C@H](O)[C@H]1CC[C@H]2[C@@]12CO[C@]3(O)[C@@H](O)[C@@H]1C(C)(C)CC[C@@H]2O [oridonin]
